Measured values published in patent publication US20070128217A1 (priority 2003, published 2007).

What was measured:
[1] = test system: rabbit serum obtained by immunizing a rabbit with the SARS-CoV strain Frankfurt 1; type: binding; set-up: Binding of a rabbit serum to linear peptides / Binding of a rabbit serum to looped peptides / Rabbit serum linear peptides / Rabbit serum looped peptides / Binding of a rabbit serum to linear peptides of protein N of SARS-CoV Urbani (Rabbit serum linear peptides) / Binding of a rabbit serum to looped/cyclic peptides of protein N of SARS-CoV Urbani (Rabbit serum looped peptides): unit not given here
[2] = test system: control sera (pooled serum of ten healthy LUMC hospital workers; commercial negative donor pooled serum from the Dutch bloodbank); type: binding, human; set-up: Binding of Control serum LUMC to linear peptides / Binding of Control serum Blood-bank to linear peptides / Binding of Control serum LUMC to looped peptides / Binding of Control Serum Blood-Bank to Looped peptides / Binding of Control serum LUMC to linear peptides of the protein M of SARS-CoV Urbani / Binding of Control serum Blood-bank to linear peptides of the protein M of SARS-CoV Urbani / Binding of Control serum LUMC to looped peptides of the protein M of SARS-CoV Urbani / Binding of Control Serum Blood-Bank to Looped peptides of the protein M of SARS-CoV Urbani: unit not given here
[3] = test system: antibodies in sera from SARS patients (sera 1a, 1b, 2, 6, 37, 62, London, SARS-yellow, SARS-green); type: binding, human; set-up: Binding of serum 6 to linear peptides of protein X1 of SARS-CoV Urbani / Binding of serum 37 to linear peptides of protein X1 of SARS-CoV Urbani / Binding of serum 6 to looped/cyclic peptide (PEPSCAN-ELISA) / Binding of serum 37 to looped/cyclic peptide (PEPSCAN-ELISA) / Binding of serum 37 to looped/cyclic peptides of protein X1 of SARS-CoV Urbani / Binding of serum 6 to linear peptides of protein X2 / Binding of serum 37 to linear peptides of protein X2 / Binding of serum 37 to looped/cyclic peptides of protein X2 of SARS-CoV Urbani / Binding of serum 6 to linear peptides of protein M of SARS-CoV Urbani / Binding of serum 37 to linear peptides of protein M of SARS-CoV Urbani / Binding of serum 6 to looped/cyclic peptides of protein M of SARS-CoV Urbani / Binding of serum 37 to looped/cyclic peptides of protein M of SARS-CoV Urbani / Binding of serum 6 to linear peptides of protein X3 of SARS-CoV Urbani / Binding of serum 37 to linear peptides of protein X3 of SARS-CoV Urbani / Binding of serum 37 to looped/cyclic peptides of protein X3 of SARS-CoV Urbani / Binding of serum 6 to linear peptides of protein X4 of SARS-CoV Urbani / Binding of serum 37 to linear peptides of protein X4 of SARS-CoV Urbani / Binding of serum 37 to looped/cyclic peptides of protein X4 of SARS-CoV Urbani / Binding of serum 6 to linear peptides of protein X5 of SARS-CoV Urbani / Binding of serum 37 to linear peptides of protein X5 of SARS-CoV Urbani / Binding of serum 37 to looped/cyclic peptides of protein X5 of SARS-CoV Urbani / Binding of serum 6 to linear peptides of protein N of SARS-CoV Urbani / Binding of serum 37 to linear peptides of protein N of SARS-CoV Urbani / Binding of serum 6 to linear peptide (PEPSCAN-ELISA) / Binding of serum 1a to looped/cyclic peptides of protein N of SARS-CoV Urbani / Binding of serum 1b to looped/cyclic peptides of protein N of SARS-CoV Urbani / Binding of serum 2 to looped/cyclic peptides of protein N of SARS-CoV Urbani / Binding of serum 6 to looped/cyclic peptides of protein N of SARS-CoV Urbani / Binding of serum 37 to looped/cyclic peptides of protein N of SARS-CoV Urbani / Binding of serum 62 to looped/cyclic peptides of protein N of SARS-CoV Urbani / Binding of serum London to looped/cyclic peptides of protein N of SARS-CoV Urbani / Binding of serum SARS-green to looped/cyclic peptides of protein N of SARS-CoV Urbani: unit not given here
[4] = test system: recombinant human anti-SARS-CoV antibody 03-018; type: binding; set-up: Binding of antibody 03-018 to linear peptides of the N protein of SARS-CoV Urbani / Binding of antibody 03-018 to looped/cyclic peptides of the N protein of SARS-CoV Urbani: unit not given here

Sequence | Binding of a rabbit serum to linear peptides of protein N of SARS-CoV Urbani (Rabbit serum linear peptides) [1] | Binding of a rabbit serum to looped/cyclic peptides of protein N of SARS-CoV Urbani (Rabbit serum looped peptides) [1] | Binding of Control Serum Blood-Bank to Looped peptides [2] | Binding of Control serum Blood-bank to linear peptides [2] | Binding of Control serum LUMC to linear peptides [2] | Binding of Control serum LUMC to looped peptides [2] | Binding of serum 1a to looped/cyclic peptides of protein N of SARS-CoV Urbani [3] | Binding of serum 1b to looped/cyclic peptides of protein N of SARS-CoV Urbani [3] | Binding of serum 2 to looped/cyclic peptides of protein N of SARS-CoV Urbani [3] | Binding of serum 6 to looped/cyclic peptides of protein N of SARS-CoV Urbani [3] | Binding of serum 37 to looped/cyclic peptides of protein N of SARS-CoV Urbani [3] | Binding of serum 62 to looped/cyclic peptides of protein N of SARS-CoV Urbani [3] | Binding of serum London to looped/cyclic peptides of protein N of SARS-CoV Urbani [3] | Binding of serum SARS-green to looped/cyclic peptides of protein N of SARS-CoV Urbani [3] | Binding of serum SARS-yellow to looped/cyclic peptides of protein N of SARS-CoV Urbani [3] | Binding of antibody 03-018 to linear peptides of the N protein of SARS-CoV Urbani [4] | Binding of antibody 03-018 to looped/cyclic peptides of the N protein of SARS-CoV Urbani [4] | Binding of serum 1a to linear peptides of protein N of SARS-CoV Urbani [3] | Binding of serum 1b to linear peptides of protein N of SARS-CoV Urbani [3] | Binding of serum 2 to linear peptides of protein N of SARS-CoV Urbani [3] | further results
ALLLLDRLNQLESKV | 0.1 | 0.4 | 0.8 | 0.8 | 0.7 | 0.8 | 0.4 | 0.3 | 0.5 | 0.3 | 1.0 | 0.9 | 0.5 | 0.7 | 0.5 | 0.1 | 0.3 |  |  |  | Binding of serum 1a to linear peptide (PEPSCAN-ELISA) [3]: 0.2; Binding of serum 1b to linear peptide (PEPSCAN-ELISA) [3]: 0.1; Binding of serum 2 to linear peptide (PEPSCAN-ELISA) [3]: 0.2; Binding of serum 6 to linear peptide (PEPSCAN-ELISA) [3]: 0.1; Binding of serum 37 to linear peptide (PEPSCAN-ELISA) [3]: 0.7; Binding of serum 62 to linear peptide (PEPSCAN-ELISA) [3]: 0.4; Binding of serum London to linear peptide (PEPSCAN-ELISA) [3]: 0.6; Binding of serum SARS-green to linear peptide (PEPSCAN-ELISA) [3]: 0.2; Binding of serum SARS-yellow to linear peptide (PEPSCAN-ELISA) [3]: 0.5
ALNTPKDHIGTRNPN | 0.2 | 0.2 | 0.5 | 0.8 | 0.6 | 0.4 | 0.4 | 0.3 | 0.5 | 0.3 | 0.5 | 0.5 | 0.3 | 0.5 | 0.0 | 0.1 | 0.2 | 0.3 | 0.1 | 0.3 | Binding of serum 6 to linear peptides of protein N of SARS-CoV Urbani [3]: 0.2; Binding of serum 37 to linear peptides of protein N of SARS-CoV Urbani [3]: 0.7; Binding of serum 62 to linear peptides of protein N of SARS-CoV Urbani [3]: 0.6; Binding of serum London to linear peptides of protein N of SARS-CoV Urbani [3]: 0.5; Binding of serum SARS-green to linear peptides of protein N of SARS-CoV Urbani [3]: 0.4; Binding of serum SARS-yellow to linear peptides of protein N of SARS-CoV Urbani [3]: 0.5
ALTQHGKEELRFPRG | 0.2 | 0.3 | 0.4 | 0.9 | 0.7 | 0.4 | 0.2 | 0.1 | 0.2 | 0.1 | 0.5 | 0.2 | 0.3 | 0.1 | 0.3 | 0.2 | 0.2 | 0.3 | 0.2 | 0.3 | Binding of serum 6 to linear peptides of protein N of SARS-CoV Urbani [3]: 0.2; Binding of serum 37 to linear peptides of protein N of SARS-CoV Urbani [3]: 0.9; Binding of serum 62 to linear peptides of protein N of SARS-CoV Urbani [3]: 0.8; Binding of serum London to linear peptides of protein N of SARS-CoV Urbani [3]: 0.5; Binding of serum SARS-green to linear peptides of protein N of SARS-CoV Urbani [3]: 0.6; Binding of serum SARS-yellow to linear peptides of protein N of SARS-CoV Urbani [3]: 0.6
